In ChEMBL document CHEMBL6182861, “Structural modification of heptamethine indocyanine dyes with improved aqueous solubility and stability for photothermal therapy” (Eur J Med Chem, 2025):
Calls of active or inactive are those of the source. No cut-off for these calls is given here.

Experiments:
[1] = Photosensitizing property of compound assessed as generation of singlet-state oxygen at 10 uM exposed to laser irradiation of 808 nm for 2 mins by SOSG probe based analysis; type: functional
4T1 [2] = experiment: Induction of apoptosis in mouse 4T1 cells at 3.12 uM incubated for 4 hrs followed by exposure to laser irradiation of 808 nm for 2 mins by Annexin V-FITC/PI staining based flow cytometry; type: functional, cell-based; settings: time 242.0 min
HepG2 [3] = experiment: Induction of ROS generation in human HepG2 cells at 3.12 uM incubated for 4 hrs followed by exposure to laser irradiation of 808 nm for 2 mins by flow cytometry; type: functional, cell-based; settings: time 242.0 min
Mitochondrial membrane [4] = experiment: Inhibition of mitochondrial membrane potential in human HepG2 cells at 3.12 uM incubated for 24 hrs by Rh123 probe based CLSM; type: cell membranes
[5] = Drug excretion in female BALB/c mouse bearing mouse 4T1 cells at 1.8 mg/kg, iv measured up to 12 hrs by fluorescence imaging analysis; type: ADME, organism-based; settings: in vivo
Mitochondrial membrane [6] = experiment: Inhibition of mitochondrial membrane potential in human HepG2 cells at 3.12 uM incubated for 24 hrs by flow cytometry; type: cell membranes
[7] = Toxicity in female BALB/c mouse bearing mouse 4T1 cells assessed as body weight at 1.8 mg/kg, iv pretreated for 4 hrs followed by exposure to laser irradiation of 808 nm for 5 mins on every 2 days treated for 15 days; type: organism-based; settings: in vivo, 360 h, time 15 day
[8] = Photothermal property of compound assessed as increase in photothermal conversion efficiency at 20 uM exposed to laser irradiation of 808 nm for 2 mins; type: functional
Mitochondrial membrane [9] = experiment: Inhibition of mitochondrial membrane potential in human HepG2 cells at 3.12 uM preincubated for 4 hrs followed by exposure to laser irradiation of 808 nm for 2 mins and subsequent incubation for 20 hrs by flow cytometry; type: cell membranes; settings: time 1442.0 min
[10] = Toxicity in ICR mouse bearing mouse H22 cells assessed as damage in heart at 1.8 mg/kg, iv pretreated for 4 hrs followed by exposure to laser irradiation of 808 nm for 5 mins on every 2 days treated for 15 days by H and E staining based analysis; type: organism-based; settings: in vivo, 360 h, time 15 day
[11] = Toxicity in female BALB/c mouse bearing mouse 4T1 cells assessed as damage in lung at 1.8 mg/kg, iv pretreated for 4 hrs followed by exposure to laser irradiation of 808 nm for 5 mins on every 2 days treated for 15 days by H and E staining based analysis; type: organism-based; settings: in vivo, 360 h, time 15 day
[12] = Drug uptake in human HepG2 cells assessed as increase in fluorescence intensity at 3.12 uM incubated for 4 hrs by flow cytometry; type: ADME, cell-based; settings: hepg2, 4 h
[13] = Cytotoxicity against mouse NIH3T3 cells assessed as survival rate at 25 uM relative to control; type: toxicity, cell-based; settings: read-out: Survival
Mitochondrial membrane [14] = experiment: Inhibition of mitochondrial membrane potential in mouse 4T1 cells at 3.12 uM incubated for 24 hrs by Rh123 probe based CLSM; type: cell membranes
Mitochondrial membrane [15] = experiment: Inhibition of mitochondrial membrane potential in human HepG2 cells at 3.12 uM preincubated for 4 hrs followed by exposure to laser irradiation of 808 nm for 2 mins and subsequent incubation for 20 hrs by Rh123 probe based CLSM; type: cell membranes; settings: time 1442.0 min
[16] = Drug accumulation in tumor of female BALB/c mouse bearing mouse 4T1 cells at 1.8 mg/kg, iv measured up to 12 hrs by fluorescence imaging analysis; type: ADME, organism-based, Neoplasm; settings: in vivo
[17] = Photosensitizing property of compound assessed as generation of singlet-state oxygen by ESR spectrometry; type: functional
4T1 [18] = experiment: Induction of ROS generation in mouse 4T1 cells at 3.12 uM incubated for 4 hrs followed by exposure to laser irradiation of 808 nm for 2 mins by DCFH-DA probe based CLSM; type: functional, cell-based; settings: time 242.0 min
[19] = Drug accumulation in tumor of female BALB/c mouse bearing mouse 4T1 cells assessed as increase in fluorescence intensity at 1.8 mg/kg, iv measured after 4 hrs by fluorescence imaging analysis; type: ADME, organism-based, Neoplasm; settings: in vivo
HepG2 [20] = experiment: Induction of ROS generation in human HepG2 cells at 3.12 uM incubated for 4 hrs followed by exposure to laser irradiation of 808 nm for 2 mins by DCFH-DA probe based CLSM; type: functional, cell-based; settings: time 242.0 min
HepG2 [21] = experiment: Photothermal cytotoxicity against human HepG2 cells up to 25 uM preincubated for 4 hrs followed by exposure to laser irradiation of 808 nm for 2 mins and subsequent incubation for 20 hrs by MTT assay; type: functional, cell-based; settings: time 1442.0 min
[22] = Drug uptake in human HepG2 cells assessed as increase in fluorescence intensity at 3.12 uM incubated for 4 hrs by CLSM; type: ADME, cell-based; settings: hepg2, 4 h
4T1 [23] = experiment: Induction of ROS generation in mouse 4T1 cells at 3.12 uM incubated for 4 hrs followed by exposure to laser irradiation of 808 nm for 2 mins by flow cytometry; type: functional, cell-based; settings: time 242.0 min
[24] = Drug uptake in mouse 4T1 cells assessed as increase in fluorescence intensity at 3.12 uM incubated for 4 hrs by flow cytometry; type: ADME, cell-based; settings: 4t1, 4 h
HepG2 [25] = experiment: Induction of apoptosis in human HepG2 cells at 3.12 uM incubated for 4 hrs followed by exposure to laser irradiation of 808 nm for 2 mins by Annexin V-FITC/PI staining based flow cytometry; type: functional, cell-based; settings: time 242.0 min
Mitochondrial membrane [26] = experiment: Inhibition of mitochondrial membrane potential in mouse 4T1 cells at 3.12 uM preincubated for 4 hrs followed by exposure to laser irradiation of 808 nm for 2 mins and subsequent incubation for 20 hrs by flow cytometry; type: cell membranes; settings: time 1442.0 min
Mitochondrial membrane [27] = experiment: Inhibition of mitochondrial membrane potential in mouse 4T1 cells at 3.12 uM preincubated for 4 hrs followed by exposure to laser irradiation of 808 nm for 2 mins and subsequent incubation for 20 hrs by Rh123 probe based CLSM; type: cell membranes; settings: time 1442.0 min
[28] = Drug uptake in mouse 4T1 cells assessed as increase in fluorescence intensity at 3.12 uM incubated for 4 hrs by CLSM; type: ADME, cell-based; settings: 4t1, 4 h
Mitochondrial membrane [29] = experiment: Inhibition of mitochondrial membrane potential in mouse 4T1 cells at 3.12 uM incubated for 24 hrs by flow cytometry; type: cell membranes
[30] = Photothermal stability of compound at 60 degreeC at 20 uM exposed to laser irradiation of 808 nm for 2.5 mins; type: physicochemical
4T1 [31] = experiment: Antitumor activity against mouse 4T1 cells implanted in female BALB/c mouse assessed as decrease in tumor weight at 2.5 mg/kg, iv pretreated for 4 hrs followed by exposure to laser irradiation of 808 nm for 5 mins on every 2 days treated for 15 days; type: functional, organism-based; settings: time 15.0 day
[32] = Toxicity in female BALB/c mouse bearing mouse 4T1 cells assessed as damage in liver at 2.5 mg/kg, iv pretreated for 4 hrs followed by exposure to laser irradiation of 808 nm for 5 mins on every 2 days treated for 15 days by H and E staining based analysis; type: organism-based; settings: in vivo, 360 h, time 15 day
[33] = Toxicity in ICR mouse bearing mouse H22 cells assessed as damage in liver at 2.5 mg/kg, iv pretreated for 4 hrs followed by exposure to laser irradiation of 808 nm for 5 mins on every 2 days treated for 15 days by H and E staining based analysis; type: organism-based; settings: in vivo, 360 h, time 15 day
[34] = Toxicity in female BALB/c mouse bearing mouse 4T1 cells assessed as damage in kidney at 2.5 mg/kg, iv pretreated for 4 hrs followed by exposure to laser irradiation of 808 nm for 5 mins on every 2 days treated for 15 days by H and E staining based analysis; type: organism-based; settings: in vivo, 360 h, time 15 day

With `COC(=O)C(=C\C=C\C1=[N+](C)c2ccccc2C1(C)C)/C=C/C=C1/N(C)c2ccccc2C1(C)C.[I-]` the Activity [1] was “inactive”, the Activity (4T1 [2]) was “Active” and the Activity (HepG2 [3]) was “Active”. For the same compound, the inhibition (Mitochondrial membrane [4]) was “Active; Certain Degree Of Inhibition Was Observed”, the Drug excretion [5] was “Active” and the inhibition (Mitochondrial membrane [6]) was “Active; Certain Degree Of Inhibition Was Observed”. For the same compound, the Activity [7] was 18 g, the Activity [8] was “Not active; Lowest Efficiency Observed Among Tested Compounds” and the inhibition (Mitochondrial membrane [9]) was “Active; Significant Inhibition Was Observed”. The Activity [10] was “Non-toxic”, the Activity [11] was “Non-toxic” and the Drug uptake [12] was “Active”. For the same compound, the viability at 25 µM [13] was greater than 60%, the inhibition (Mitochondrial membrane [14]) was “Active; Certain Degree Of Inhibition Was Observed” and the inhibition (Mitochondrial membrane [15]) was “Active; Significant Inhibition Was Observed”. The Drug uptake [16] was “Active”, the Activity [17] was “Active” and the Activity (4T1 [18]) was “Active”. For the same compound, the Drug uptake [19] was “Active”, the Activity (HepG2 [20]) was “Active” and the Activity (HepG2 [21]) was “Not active; Limited Photo-Thermal Toxicity Was Observed”. For the same compound, the Drug uptake [22] was “Active”, the Activity (4T1 [23]) was “Active” and the Drug uptake [24] was “Active”. The Activity (HepG2 [25]) was “Active”, the inhibition (Mitochondrial membrane [26]) was “Active; Significant Inhibition Was Observed” and the inhibition (Mitochondrial membrane [27]) was “Active; Significant Inhibition Was Observed”. The Drug uptake [28] was “Active”, the inhibition (Mitochondrial membrane [29]) was “Active; Certain Degree Of Inhibition Was Observed” and the Stability [30] was “Unstable”.

In the case of `COCCOCCOCCN1/C(=C/C=C/C(=C/C=C/C2=[N+](CCOCCOCCOC)c3ccccc3C2(C)C)C(=O)OC)C(C)(C)c2ccccc21.[I-]`, the Activity [1] is reported as “Active”, the Activity (4T1 [2]) is reported as “Active” and the Activity (HepG2 [3]) is reported as “Active; Exhibited Only A Smaller Increase In Activity”. For the same compound, the inhibition (Mitochondrial membrane [4]) was “Active; Certain Degree Of Inhibition Was Observed”, the inhibition (Mitochondrial membrane [6]) was “Active; Certain Degree Of Inhibition Was Observed” and the Activity (4T1 [31]) was “Active”. For the same compound, the Activity [8] was “Active; Highest Efficiency Observed Among Tested Compounds”, the inhibition (Mitochondrial membrane [9]) was “Active; Significant Inhibition Was Observed” and the Activity [32] was “Non-toxic”. The Drug uptake [12] was “Active”, the viability at 25 µM [13] was greater than 60% and the inhibition (Mitochondrial membrane [14]) was “Active; Certain Degree Of Inhibition Was Observed”. The inhibition (Mitochondrial membrane [15]) was “Active; Significant Inhibition Was Observed”, the Activity [17] was “Active” and the Activity (4T1 [18]) was “Active; Exhibited Only A Smaller Increase In Activity”. For the same compound, the Activity (HepG2 [20]) was “Active; Exhibited Only A Smaller Increase In Activity”, the Drug uptake [22] was “Active” and the Activity (4T1 [23]) was “Active; Exhibited Only A Smaller Increase In Activity”. The Drug uptake [24] was “Active”, the Activity [33] was “Non-toxic” and the Activity (HepG2 [25]) was “Active”. The Activity [34] was “Non-toxic”, the inhibition (Mitochondrial membrane [26]) was “Active; Significant Inhibition Was Observed” and the inhibition (Mitochondrial membrane [27]) was “Active; Significant Inhibition Was Observed”. The Drug uptake [28] was “Active”, the inhibition (Mitochondrial membrane [29]) was “Active; Certain Degree Of Inhibition Was Observed” and the Stability [30] was “Stable”.
